Assay results: patent US10856562B2, “Flavor composition and edible compositions containing same” (MARS, INCORPORATED, priority 2013, dated 2020)
Square brackets hold non-standard residues; d marks the D form. Ends that are not written are not given here. pGlu = O=C1CC[C@@H](C(=O)O)N1

Experiments:
panelists = assay: Consensus attribute scores of flavor enhancers in Uncle Ben's Garden Vegetable Ready rice; type: in vivo, human; design: key to Cooked White Rice / Vegetable Oil / Vegetable Complex / Cooked Green Vegetable / Cooked Corn / Sweet (BASIC TASTES) / Salt (BASIC TASTES) / Mouthdrying (Texture) / Residual Mouthcoating (Texture) / Total Aromatics / Bitter (BASIC TASTES): 15-point scale, 0 = none, 15 = very strong; details: for Bitter (BASIC TASTES) / Black Pepper / Cooked Corn / Cooked Green Vegetable / Cooked White Rice / Dehydrated onion/garlic / HVP/Brothy / Mouthdrying (Texture) / Residual Mouthcoating (Texture) / Salt (BASIC TASTES) / Salt Burn (Chemical Feeling Factors) / Sweet (BASIC TASTES) / Total Aromatics / Umami (Chemical Feeling Factors) / Vegetable Complex / Vegetable Oil / Mineral/Flint: rice
Procedure: Descriptive attributes (e.g., taste, flavor and chemical feeling factors) of three use levels of pGlu-Cys (FE-35), pGlu-Cys-Gly (FE-36), pGlu-Cys-Cys (FE-37), pGlu-Cys-Val (FE-38) and pGlu-Val-Cys (UE-30) flavor composition peptides were determined. The three use levels were as follows: 1.0 ppb, 10.0 ppb and 100.0 ppb.
Data was collected for the attributes of the product in-mouth for the use levels according to the following protocol: • The samples were analyzed for flavor by six to nine members of a panel, trained and experienced in flavor evaluation using the Spectrum™ method. Samples were evaluated across multiple panel sessions. • The strength of each attribute was rated on a 15-point scale, where 0=none and 15=very strong. • This scale incorporates the ability to use tenths of a point and therefore has the potential of 150 scale differentiations. • The scale may be expanded beyond 15 points to include extreme ratings if necessary.
Preparation of Rice Samples • Each flavor enhancer was tested in Uncle Ben's Garden Vegetable Ready rice matrix at 3 different concentrations: 1 ppb, 10 ppb and 100 ppb. A total of 15 points with flavor enhancers were prepared for sensory evaluation. Additionally, 15 control samples were prepared. Each point had 2 samples (test and control) and was made from one pouch of rice. • Directions to prepare the solutions: • The 15 ready- to eat pouches were microwaved according to the procedure found on the back of the pouch: (1) squeeze pouch to separate rice, (2) tear two inches to vent, (3) heat on High for 90 seconds and (4) remove from microwave using COOL TOUCH area on untorn side. • From each pouch 124.75 g (test sample) and 99.8 g (control) were weighed out. The test sample had the flavor enhancer and/or salt. The control sample only had salt added. • The flavor enhancer and/or salt (non-iodized salt) were weighed in a soufflé cup. The weighed amount of flavor enhancer and/or salt was added to the sub-sampled rice. The rice was stirred and mixed to evenly distribute the salt added. • Some rice was placed back into the soufflé cup, sealed, and the cup was shook to get the flavor enhancer and/or salt that may have been stuck on the walls of the soufflé cup. After shaking the soufflé cup, the rice was added back to the original sub-sampled rice and stirred/mixed again. • Each sample (test and control) was microwaved for another 30 seconds (or until warm) to ensure that the salts/compounds were going completely into the solutions. • All samples (test and control) were tasted at the same temperature. • Each test sample had 0.2% NaCl added and flavor enhancers at the specified concentrations.
A summary of the concentrations of NaCl and flavor composition peptides in the rice samples is described in table 23. The first value of each cell represents a single sample amount of an ingredient in milligrams, and the second number in parenthesis is a doubling of the ingredient (in grams) for use in a doubled size sample.
The panelists evaluated each sample for the attributes described by table 25.

panel of trained tasters = assay: Saltiness of sodium-reduced pasta sauce with peptides, panel of trained tasters; type: in vivo, human
Procedure: Food product compositions were prepared by admixing flavor composition peptide(s) of the present application with food compositions, wherein the level of sodium (NaCl) in the food product compositions was reduced. The level of sodium was reduced by 25%, 50% or 75% compared to food products compositions that were not admixed with flavor composition peptides. The food product compositions comprising the flavor composition peptides were tasted by a panel of trained tasters and the level of saltiness was compared to the control food products.
The peptides pGlu-Val-Leu (identified as “SE-13”), pGlu-Val-Cys (identified as “UE-30”) and pGlu-Val-Val (identified as “SE-17”) were tested in Pasta Sauce. The control pasta sauce comprised 540 mg sodium (NaCl) in a 125 g serving.

With [pGlu]-Cys-Gly [FE-36] the “Salt burn in rice” value (panelists; 100 ppb) was “low level of salt burn”, the Bitter in rice (panelists; all samples (1, 10, 100 ppb)) was “slightly bitter” and the “Cooked green vegetable in rice compared to the Control” value (panelists; all samples (1, 10, 100 ppb)) was “low level of cooked green vegetable”. For the same substance, the “Mouthdrying in rice, not seen in the Control” value (panelists; all samples (1, 10, 100 ppb)) was “have mouthdrying”, the “Umami feeling factor in rice compared to the Control” value (panelists; all samples (1, 10, 100 ppb)) was “higher in umami” and the “Bitter (BASIC TASTES)” value (panelists; 1.0 ppb (5 ppm)) was 0.5. For the same substance, the “Black Pepper” value (panelists; 1.0 ppb (5 ppm)) was 1.0, the “Cooked Corn” value (panelists; 1.0 ppb (5 ppm)) was 1.0 and the “Cooked Green Vegetable” value (panelists; 1.0 ppb (5 ppm)) was 0.5. The “Cooked White Rice” value (panelists; 1.0 ppb (5 ppm)) was 3.0, the Dehydrated onion/garlic (panelists; 1.0 ppb (5 ppm)) was 1.0 and the HVP/Brothy (panelists; 1.0 ppb (5 ppm)) was 1.0. The “Mouthdrying (Texture)” value (panelists; 1.0 ppb (5 ppm)) was 1.0, the “Residual Mouthcoating (Texture)” value (panelists; 1.0 ppb (5 ppm)) was 1.0 and the “Salt (BASIC TASTES)” value (panelists; 1.0 ppb (5 ppm)) was 11.5. For the same substance, the “Salt Burn (Chemical Feeling Factors)” value (panelists; 1.0 ppb (5 ppm)) was 0.0, the “Sweet (BASIC TASTES)” value (panelists; 1.0 ppb (5 ppm)) was 3.5 and the “Total Aromatics” value (panelists; 1.0 ppb (5 ppm)) was 6.0. The “Umami (Chemical Feeling Factors)” value (panelists; 1.0 ppb (5 ppm)) was 1.5, the “Vegetable Complex” value (panelists; 1.0 ppb (5 ppm)) was 1.5 and the “Vegetable Oil” value (panelists; 1.0 ppb (5 ppm)) was 0.8. The “Bitter (BASIC TASTES)” value (panelists; 10.0 ppb (50 ppm)) was 1.0, the “Black Pepper” value (panelists; 10.0 ppb (50 ppm)) was 1.0 and the “Cooked Corn” value (panelists; 10.0 ppb (50 ppm)) was 1.0. For the same substance, the “Cooked Green Vegetable” value (panelists; 10.0 ppb (50 ppm)) was 1.0, the “Cooked White Rice” value (panelists; 10.0 ppb (50 ppm)) was 3.0 and the Dehydrated onion/garlic (panelists; 10.0 ppb (50 ppm)) was 1.5. The HVP/Brothy (panelists; 10.0 ppb (50 ppm)) was 1.0, the “Mouthdrying (Texture)” value (panelists; 10.0 ppb (50 ppm)) was 1.5 and the “Residual Mouthcoating (Texture)” value (panelists; 10.0 ppb (50 ppm)) was 1.0. For the same substance, the “Salt (BASIC TASTES)” value (panelists; 10.0 ppb (50 ppm)) was 13.5, the “Salt Burn (Chemical Feeling Factors)” value (panelists; 10.0 ppb (50 ppm)) was 0.0 and the “Sweet (BASIC TASTES)” value (panelists; 10.0 ppb (50 ppm)) was 3.5. The “Total Aromatics” value (panelists; 10.0 ppb (50 ppm)) was 6.5, the “Umami (Chemical Feeling Factors)” value (panelists; 10.0 ppb (50 ppm)) was 3.0 and the “Vegetable Complex” value (panelists; 10.0 ppb (50 ppm)) was 2.0. The “Vegetable Oil” value (panelists; 10.0 ppb (50 ppm)) was 0.8, the “Bitter (BASIC TASTES)” value (panelists; 100 ppb (50 ppm)) was 0.5 and the “Black Pepper” value (panelists; 100 ppb (50 ppm)) was 0.8. For the same substance, the “Cooked Corn” value (panelists; 100 ppb (50 ppm)) was 0.8, the “Cooked Green Vegetable” value (panelists; 100 ppb (50 ppm)) was 0.8 and the “Cooked White Rice” value (panelists; 100 ppb (50 ppm)) was 3.0. For the same substance, the Dehydrated onion/garlic (panelists; 100 ppb (50 ppm)) was 1.3, the HVP/Brothy (panelists; 100 ppb (50 ppm)) was 1.0 and the “Mouthdrying (Texture)” value (panelists; 100 ppb (50 ppm)) was 2.0. The “Residual Mouthcoating (Texture)” value (panelists; 100 ppb (50 ppm)) was 1.0, the “Salt (BASIC TASTES)” value (panelists; 100 ppb (50 ppm)) was 13.5 and the “Salt Burn (Chemical Feeling Factors)” value (panelists; 100 ppb (50 ppm)) was 1.0. The “Sweet (BASIC TASTES)” value (panelists; 100 ppb (50 ppm)) was 3.5, the “Total Aromatics” value (panelists; 100 ppb (50 ppm)) was 6.3 and the “Umami (Chemical Feeling Factors)” value (panelists; 100 ppb (50 ppm)) was 4.0. The “Vegetable Complex” value (panelists; 100 ppb (50 ppm)) was 1.5 and the “Vegetable Oil” value (panelists; 100 ppb (50 ppm)) was 0.8.

[pGlu]-Cys-Val [FE-38] was tested, and the “Cooked green vegetable in rice compared to the Control” value (panelists; 1 & 100 ppb) was “low level of cooked green vegetable”, the Bitter in rice (panelists; all samples (1, 10, 100 ppb)) was “bitter” and the “Mineral/flint note in rice, not seen in the Control” value (panelists; all samples (1, 10, 100 ppb)) was “low mineral/flint note”. For the same substance, the “Mouthdrying in rice, not seen in the Control” value (panelists; all samples (1, 10, 100 ppb)) was “have mouthdrying”, the “Salt burn feeling factor in rice compared to the Control” value (panelists; all samples (1, 10, 100 ppb)) was “higher” and the “Umami feeling factor in rice compared to the Control” value (panelists; all samples (1, 10, 100 ppb)) was “higher”. The “Bitter (BASIC TASTES)” value (panelists; 1.0 ppb (5 ppm)) was 0.8, the “Black Pepper” value (panelists; 1.0 ppb (5 ppm)) was 1.0 and the “Cooked Corn” value (panelists; 1.0 ppb (5 ppm)) was 0.8. The “Cooked Green Vegetable” value (panelists; 1.0 ppb (5 ppm)) was 0.8, the “Cooked White Rice” value (panelists; 1.0 ppb (5 ppm)) was 3.0 and the Dehydrated onion/garlic (panelists; 1.0 ppb (5 ppm)) was 1.0. The HVP/Brothy (panelists; 1.0 ppb (5 ppm)) was 1.0, the Mineral/Flint (panelists; 1.0 ppb (5 ppm)) was 1.0 and the “Mouthdrying (Texture)” value (panelists; 1.0 ppb (5 ppm)) was 1.8. For the same substance, the “Residual Mouthcoating (Texture)” value (panelists; 1.0 ppb (5 ppm)) was 1.0, the “Salt (BASIC TASTES)” value (panelists; 1.0 ppb (5 ppm)) was 13.8 and the “Salt Burn (Chemical Feeling Factors)” value (panelists; 1.0 ppb (5 ppm)) was 1.0. For the same substance, the “Sweet (BASIC TASTES)” value (panelists; 1.0 ppb (5 ppm)) was 3.5, the “Total Aromatics” value (panelists; 1.0 ppb (5 ppm)) was 6.3 and the “Umami (Chemical Feeling Factors)” value (panelists; 1.0 ppb (5 ppm)) was 2.0. The “Vegetable Complex” value (panelists; 1.0 ppb (5 ppm)) was 1.5, the “Vegetable Oil” value (panelists; 1.0 ppb (5 ppm)) was 0.8 and the “Bitter (BASIC TASTES)” value (panelists; 10.0 ppb (50 ppm)) was 1.2. The “Black Pepper” value (panelists; 10.0 ppb (50 ppm)) was 1.0, the “Cooked Corn” value (panelists; 10.0 ppb (50 ppm)) was 1.0 and the “Cooked Green Vegetable” value (panelists; 10.0 ppb (50 ppm)) was 0.0. For the same substance, the “Cooked White Rice” value (panelists; 10.0 ppb (50 ppm)) was 3.0, the Dehydrated onion/garlic (panelists; 10.0 ppb (50 ppm)) was 0.8 and the HVP/Brothy (panelists; 10.0 ppb (50 ppm)) was 1.0. For the same substance, the Mineral/Flint (panelists; 10.0 ppb (50 ppm)) was 1.5, the “Mouthdrying (Texture)” value (panelists; 10.0 ppb (50 ppm)) was 2.0 and the “Residual Mouthcoating (Texture)” value (panelists; 10.0 ppb (50 ppm)) was 1.0. For the same substance, the “Salt (BASIC TASTES)” value (panelists; 10.0 ppb (50 ppm)) was 13.0, the “Salt Burn (Chemical Feeling Factors)” value (panelists; 10.0 ppb (50 ppm)) was 1.0 and the “Sweet (BASIC TASTES)” value (panelists; 10.0 ppb (50 ppm)) was 3.3. The “Total Aromatics” value (panelists; 10.0 ppb (50 ppm)) was 6.0, the “Umami (Chemical Feeling Factors)” value (panelists; 10.0 ppb (50 ppm)) was 2.0 and the “Vegetable Complex” value (panelists; 10.0 ppb (50 ppm)) was 1.0. For the same substance, the “Vegetable Oil” value (panelists; 10.0 ppb (50 ppm)) was 1.0, the “Bitter (BASIC TASTES)” value (panelists; 100 ppb (50 ppm)) was 0.8 and the “Black Pepper” value (panelists; 100 ppb (50 ppm)) was 1.0. The “Cooked Corn” value (panelists; 100 ppb (50 ppm)) was 0.8, the “Cooked Green Vegetable” value (panelists; 100 ppb (50 ppm)) was 0.8 and the “Cooked White Rice” value (panelists; 100 ppb (50 ppm)) was 3.0. For the same substance, the Dehydrated onion/garlic (panelists; 100 ppb (50 ppm)) was 1.0, the HVP/Brothy (panelists; 100 ppb (50 ppm)) was 1.5 and the Mineral/Flint (panelists; 100 ppb (50 ppm)) was 1.0. For the same substance, the “Mouthdrying (Texture)” value (panelists; 100 ppb (50 ppm)) was 2.5, the “Residual Mouthcoating (Texture)” value (panelists; 100 ppb (50 ppm)) was 1.0 and the “Salt (BASIC TASTES)” value (panelists; 100 ppb (50 ppm)) was 13.5. For the same substance, the “Salt Burn (Chemical Feeling Factors)” value (panelists; 100 ppb (50 ppm)) was 1.3, the “Sweet (BASIC TASTES)” value (panelists; 100 ppb (50 ppm)) was 3.5 and the “Total Aromatics” value (panelists; 100 ppb (50 ppm)) was 6.5. The “Umami (Chemical Feeling Factors)” value (panelists; 100 ppb (50 ppm)) was 3.0, the “Vegetable Complex” value (panelists; 100 ppb (50 ppm)) was 1.5 and the “Vegetable Oil” value (panelists; 100 ppb (50 ppm)) was 0.8.

In the case of [pGlu]-Val-Leu [SE-13], the “Saltiness compared to control at 25% reduction” value (panel of trained tasters; 25% sodium reduction, 10 and 1 ppb, n=4) is reported as “to control, slightly less salty” and the “Saltiness compared to control” value (panel of trained tasters; control 540 mg Na/serving, test 25, 50, 75% reduction, 10 ppb and 1 ppb, n=4) is reported as “Test variables perceived less”.

In the case of [pGlu]-Val-Val [SE-17], the “Saltiness compared to control” value (panel of trained tasters; control 540 mg, test 405 mg Na, SE-13 or SE-17 10 ppb, UE-30 1 ppb, n=4) is reported as “significantly less salty than” and the Salt enhancement (panel of trained tasters; test 405 mg Na, SE-17 10 ppb, UE-30 1 ppb) is reported as “UE-30 did not provide a big”.
